{"source": "the supplement of paper PMC11208160", "data": [{"assay": "recombinant UMI read abundance after kanamycin selection (control-corrected) (log10(CPM+1)); higher = more efficient recombination; extreme values may be limits of the assay; sequences stand for … in AGTGCAGAGAAAATCGGCCAGTTTTCTCTGCCTGCAGTCCGCATGCCGTGGGACCCCTTGGGTTCTAACCTGTTGCCTAGATTTATGCAGCGGACTGCCTTTCTCCCAAAGTGATAAACCGG…AGGTTGGTTTCACT; site = the 11-nt donor", "outline": "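Values, expressed as log10(CPM+1), derive from recombinant UMI counts converted to CPM, averaged across replicates and scaled by control-derived factors. Plating was with IPTG (0.07 mM) plus kanamycin or unselected, two replicates each. The screen pooled donor and donor-binding-loop pairs for the IS621 bridge recombinase in Escherichia coli.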", "values": [{"sequence": "ATACTGGCATGGACCGGTTTTCCCGGTAATCCGTATTTGTT (site ATACTGGCTAA)", "recombinant UMI read abundance (log10)": 0.589}, {"sequence": "ATACAAGCATGGACCGGTTTTCCCGGTAATCCGTATTTGAG (site ATCCAAGCTCT)", "recombinant UMI read abundance (log10)": 0.803}, {"sequence": "CGATCAGCATGGACCGGTTTTCCCGGTAATCCGTATTTGCT (site CGATCAGCTAG)", "recombinant UMI read abundance (log10)": 1.61}, {"sequence": "GGTCGAGCATGGACCGGTTTTCCCGGTAATCCGTATTTGCA (site GATCGAGCTTG)", "recombinant UMI read abundance (log10)": 0.273}, {"sequence": "AATGTATCATGGACCGGTTTTCCCGGTAATCCGTATTTGAC (site AATGTTTCTGT)", "recombinant UMI read abundance (log10)": 0}, {"sequence": "GGGCTCACATGGACCGGTTTTCCCGGTAATCCGTATTTGAT (site GAGCTCACTAT)", "recombinant UMI read abundance (log10)": 0.00773}, {"sequence": "ACCGAATCATGGACCGGTTTTCCCGGTAATCCGTATTTGCA (site ACCGAATCTTG)", "recombinant UMI read abundance (log10)": 2.16}, {"sequence": "GGAGTGGCATGGACCGGTTTTCCCGGTAATCCGTATTTGGC (site GGAGTGGCTCC)", "recombinant UMI read abundance (log10)": 0.101}, {"sequence": "AGATGTACATGGACCGGTTTTCCCGGTAATCCGTATTTGAC (site AGATGTACTGT)", "recombinant UMI read abundance (log10)": 1.96}, {"sequence": "ATAAGGCCATGGACCGGTTTTCCCGGTAATCCGTATTTGTC (site ATAAGGCCTGT)", "recombinant UMI read abundance (log10)": 0}, {"sequence": "TAGGACTCATGGACCGGTTTTCCCGGTAATCCGTATTTGCG (site TAGGATTCTCG)", "recombinant UMI read abundance (log10)": 1.05}, {"sequence": "GCTTGCCCATGGACCGGTTTTCCCGGTAATCCGTATTTGTT (site GCTTGCCCTAA)", "recombinant UMI read abundance (log10)": 0.0266}, {"sequence": "TTAGCTGCATGGACCGGTTTTCCCGGTAATCCGTATTTGTG (site TTGGCTGCTCA)", "recombinant UMI read abundance (log10)": 0.0755}, {"sequence": "ATCTTCCCATGGACCGGTTTTCCCGGTAATCCGTATTTGCA (site ATCTTCCCTTG)", "recombinant UMI read abundance (log10)": 0.523}, {"sequence": "AGCTCAGCATGGACCGGTTTTCCCGGTAATCCGTATTTGGG (site AGCTCCGCTCC)", "recombinant UMI read abundance (log10)": 0.0147}, {"sequence": "ATCTATACATGGACCGGTTTTCCCGGTAATCCGTATTTGAC (site TTCTATACTGT)", "recombinant UMI read abundance (log10)": 1.19}, {"sequence": "CTGCTACCATGGACCGGTTTTCCCGGTAATCCGTATTTGGT (site CTGCTACCTAA)", "recombinant UMI read abundance (log10)": 0.00859}, {"sequence": "TAGTGGACATGGACCGGTTTTCCCGGTAATCCGTATTTGTT (site TAGTGGACTAA)", "recombinant UMI read abundance (log10)": 1.38}, {"sequence": "AGCCTTCCATGGACCGGTTTTCCCGGTAATCCGTATTTGAC (site AGCCTTTCTGT)", "recombinant UMI read abundance (log10)": 0}, {"sequence": "AACAGACCATGGACCGGTTTTCCCGGTAATCCGTATTTGTA (site AACAGACCTTA)", "recombinant UMI read abundance (log10)": 1.25}, {"sequence": "AATTATGCATGGACCGGTTTTCCCGGTAATCCGTATTTGGC (site AATTATGCTCC)", "recombinant UMI read abundance (log10)": 0.0199}, {"sequence": "CCCAACACATGGACCGGTTTTCCCGGTAATCCGTATTTGTA (site CCCAACACTTA)", "recombinant UMI read abundance (log10)": 1.35}, {"sequence": "GGTTAGACATGGACCGGTTTTCCCGGTAATCCGTATTTGAG (site TGTTAGACTCT)", "recombinant UMI read abundance (log10)": 0.194}, {"sequence": "CACTTGACATGGACCGGTTTTCCCGGTAATCCGTATTTGGA (site CACTTGTCTTC)", "recombinant UMI read abundance (log10)": 0.138}, {"sequence": "ATCTTTACATGGACCGGTTTTCCCGGTAATCCGTATTTGAC (site ATCTCTACTGT)", "recombinant UMI read abundance (log10)": 0}, {"sequence": "ATCGCGGCATGGACCGGTTTTCCCGGTAATCCGTATTTGTC (site ATCGCGGCTGA)", "recombinant UMI read abundance (log10)": 2.69}, {"sequence": "CCAGCGCCATGGACCGGTTTTCCCGGTAATCCGTATTTGTG (site CAAGCGCCTCA)", "recombinant UMI read abundance (log10)": 0.0258}, {"sequence": "GCTACAGCATGGACCGGTTTTCCCGGTAATCCGTATTTGCC (site GCTACAGCTGG)", "recombinant UMI read abundance (log10)": 1.42}, {"sequence": "CTACTAACATGGACCGGTTTTCCCGGTAATCCGTATTTGGG (site CTACTAACTGC)", "recombinant UMI read abundance (log10)": 0.0111}, {"sequence": "ACGTTTACATGGACCGGTTTTCCCGGTAATCCGTATTTGCT (site CCGTTTACTAG)", "recombinant UMI read abundance (log10)": 1.53}, {"sequence": "GGTGGAACATGGACCGGTTTTCCCGGTAATCCGTATTTGTT (site CGTGGAACTAA)", "recombinant UMI read abundance (log10)": 0.00196}, {"sequence": "CAAGGAGCATGGACCGGTTTTCCCGGTAATCCGTATTTGCT (site CAAGAAGCTAG)", "recombinant UMI read abundance (log10)": 2.45}]}]}
